From ChEMBL document CHEMBL1143128, “Imidazo[1,2-a]pyridine derivatives as inhibitors of TNF-alpha expression in T cells” (Bioorg Med Chem, 2008)
≈ marks a conversion by molar mass, not a printed value. Calls of active or inactive are those of the source. The rule behind the calls is not given here.

Tests used:
U-937 [1] = test: Inhibition of TPA-stimulated TNFalpha production in human U937 cells; type: functional, cell-based
Jurkat [2] = test: Inhibition of TPA/ionomycin-stimulated human TNFalpha promoter expression in human Jurkat T cells by luciferase reporter gene assay; type: functional, cell-based
Jurkat [3] = test: Inhibition of TPA/ionomycin-stimulated human TNFalpha promoter expression in human Jurkat T cells at 55 uM by luciferase reporter gene assay relative to control; type: functional; parameters: scale not given: the % may be the effect or the level left
[4] = Cytotoxicity against human COLO320 cells after 48 hrs; type: functional; conditions: COLO 320, 48 h
HeLa [5] = test: Cytotoxicity against human HeLa S3 cells after 48 hrs; type: functional
HepG2 [6] = test: Cytotoxicity against human HepG2 cells after 48 hrs; type: functional; conditions: HepG2, 48 h
RAW [7] = test: Cytotoxicity against mouse RAW […] cells after 48 hrs; type: functional
HL-60 = test: Cytotoxicity against human HL60 cells after 48 hrs; type: functional; conditions: HL-60, 48 h
Jurkat [8] = test: Cytotoxicity against human Jurkat cells after 48 hrs; type: functional
U-937 [9] = test: Cytotoxicity against human U937 cells after 48 hrs; type: functional; conditions: U-937, 48 h
HeLa [10] = test: Inhibition of TPA-stimulated AP1 gene promoter expression in human HeLa S3 cells by SEAP reporter gene assay; type: functional, cell-based
HeLa [11] = test: Inhibition of IFN-alpha-stimulated GAS/ISRE gene promoter expression in human HeLa S3 cells by SEAP reporter gene assay; type: functional, cell-based
Jurkat [12] = test: Inhibition of TPA-stimulated NF-AT/AP1 gene promoter expression in human Jurkat cells by SEAP reporter gene assay; type: functional, cell-based
HepG2 [13] = test: Inhibition of IL6-stimulated IL6 gene promoter expression in human HepG2 cells by SEAP reporter gene assay; type: functional, cell-based
Jurkat [14] = test: Inhibition of TPA-stimulated NF-kappaB gene promoter expression in human Jurkat cells by SEAP reporter gene assay; type: functional, cell-based
Jurkat [15] = test: Inhibition of TPA-stimulated COX2 gene promoter expression in human Jurkat cells by luciferase reporter gene assay; type: functional, cell-based
[16] = target: Mitogen-activated protein kinase 3 (Homo sapiens) (UniProt P27361); test: Inhibition of TPA/ionomycin-induced ERK1 phosphorylation in human Jurkat cells upto 10 ug/ml by Western blotting; type: cell-based
Sequence of Mitogen-activated protein kinase 3 (Homo sapiens) (P27361 whole entry): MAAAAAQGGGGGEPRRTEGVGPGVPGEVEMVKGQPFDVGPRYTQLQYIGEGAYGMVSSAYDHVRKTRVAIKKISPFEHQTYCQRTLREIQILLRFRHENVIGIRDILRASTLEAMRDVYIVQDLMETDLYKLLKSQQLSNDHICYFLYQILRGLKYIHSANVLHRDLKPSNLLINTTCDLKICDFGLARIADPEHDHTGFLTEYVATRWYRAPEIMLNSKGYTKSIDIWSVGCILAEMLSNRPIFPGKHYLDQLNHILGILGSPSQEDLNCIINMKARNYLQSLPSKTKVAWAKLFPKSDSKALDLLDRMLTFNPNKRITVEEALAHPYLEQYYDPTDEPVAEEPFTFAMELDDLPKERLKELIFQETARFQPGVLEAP

[17] = target: Mitogen-activated protein kinase 1 (Homo sapiens) (UniProt P28482); test: Inhibition of TPA/ionomycin-induced ERK2 phosphorylation in human Jurkat cells upto 10 ug/ml by Western blotting; type: cell-based
Sequence of Mitogen-activated protein kinase 1 (Homo sapiens) (P28482 whole entry): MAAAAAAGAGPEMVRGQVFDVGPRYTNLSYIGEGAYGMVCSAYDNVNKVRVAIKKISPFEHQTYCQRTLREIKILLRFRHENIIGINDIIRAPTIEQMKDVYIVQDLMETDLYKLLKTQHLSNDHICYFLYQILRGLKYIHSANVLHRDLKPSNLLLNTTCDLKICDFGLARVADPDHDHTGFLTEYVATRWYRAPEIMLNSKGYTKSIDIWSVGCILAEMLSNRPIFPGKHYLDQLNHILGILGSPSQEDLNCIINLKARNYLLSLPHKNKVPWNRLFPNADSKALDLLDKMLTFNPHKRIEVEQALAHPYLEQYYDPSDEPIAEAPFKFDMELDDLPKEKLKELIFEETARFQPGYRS

[18] = target: MAP kinase p38 (Homo sapiens) (UniProt O15264+Q15759+Q16539+P53778); test: Inhibition of TPA/ionomycin-induced p38 kinase phosphorylation in human Jurkat cells upto 10 ug/ml by Western blotting; type: cell-based
RAW [19] = test: Inhibition of LPS/IFN-gamma-induced COX2 gene expression in mouse RAW 264.7 cells; type: functional, cell-based
RAW [20] = test: Inhibition of LPS/IFN-gamma-induced iNOS gene expression in mouse RAW 264.7 cells; type: functional, cell-based

Row | Structure (SMILES) | IC50 (U-937 [1]) | IC50 (Jurkat [2]) [µM] | CC50 [4] [µg/mL] | CC90 [4] [µg/mL] | CC50 (HeLa [5]) [µg/mL] | CC90 (HeLa [5]) [µg/mL] | CC50 (HepG2 [6]) [µg/mL] | CC50 (RAW [7]) [µg/mL] | CC90 (RAW [7]) [µg/mL] | CC50 (HL-60) [µg/mL] | CC90 (HL-60) [µg/mL] | CC50 (Jurkat [8]) [µg/mL] | CC90 (Jurkat [8]) [µg/mL] | CC50 (U-937 [9]) [µg/mL] | CC90 (U-937 [9]) [µg/mL] | further results
1 | CCOC(=O)/C=C1\NCCN1Cc1ccccc1 | 10 µg/mL | – | – | – | – | – | – | – | – | – | – | – | – | – | – | –
2 | CCCCCCCCCCCC(=O)[C@]1(O)C[C@H](C(=O)OCC)C(C(=O)OCC)=C2N(Cc3ccccc3)CCN21 | – | 9.5 | 10 (≈ 18 µM) | > 50 | 10 (≈ 18 µM) | 50 (≈ 89.8 µM) | 50 (≈ 89.8 µM) | 5 (≈ 8.98 µM) | 25 (≈ 44.9 µM) | 10 (≈ 18 µM) | 25 (≈ 44.9 µM) | 10 (≈ 18 µM) | 50 (≈ 89.8 µM) | 10 (≈ 18 µM) | 25 (≈ 44.9 µM) | Activity (Jurkat [3]): 25%
3 | CCCCCCCCCCCC(=O)[C@]1(O)C[C@H](C(=O)OC)C(C(=O)OCC)=C2N(Cc3ccccc3)CCN21 | 4.6 µM | 3.6 | 10 (≈ 18.4 µM) | 50 (≈ 92.1 µM) | 10 (≈ 18.4 µM) | 25 (≈ 46.1 µM) | 50 (≈ 92.1 µM) | 5 (≈ 9.21 µM) | 25 (≈ 46.1 µM) | 10 (≈ 18.4 µM) | 25 (≈ 46.1 µM) | 10 (≈ 18.4 µM) | 50 (≈ 92.1 µM) | 10 (≈ 18.4 µM) | 25 (≈ 46.1 µM) | IC50 (HeLa [10]): 4.6 µM; IC50 (HeLa [11]): 4.6 µM; IC50 (Jurkat [12]): 4.6 µM; IC50 (HepG2 [13]): 18.4 µM; IC50 (Jurkat [14]): 4.6 µM; IC50 (Jurkat [15]): 4.6 µM; Activity [16]: inactive; Activity [17]: inactive; Activity [18]: inactive; Activity (RAW [19]): inactive; Activity (RAW [20]): inactive
4 | CCCCCCCCCCCC(=O)C(=O)/C=C/C(=O)O | – | – | – | – | – | – | – | – | – | – | – | – | – | – | – | Activity (Jurkat [2]): inactive
5 | CCCCCCCCCCCC(=O)[C@]1(O)C[C@H](C(=O)O)C(C(=O)OCC)=C2N(Cc3ccccc3)CCN21 | – | 9.5 | 10 (≈ 18.9 µM) | 50 (≈ 94.6 µM) | 25 (≈ 47.3 µM) | – | > 50 | 10 (≈ 18.9 µM) | 50 (≈ 94.6 µM) | 10 (≈ 18.9 µM) | 50 (≈ 94.6 µM) | 10 (≈ 18.9 µM) | 50 (≈ 94.6 µM) | 10 (≈ 18.9 µM) | 25 (≈ 47.3 µM) | –
